The text below walks through data of PubChem BioAssay (NCI).

Structures are written as SMILES. “And” between values parts separate entries of the source, which are not always exact repeats. Equal entries are not always repeated.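 How tested: cells in 96-well plates exposed to compound for 48 hours at five concentrations. Abbreviation: GI50, concentration required for 50% inhibition of growth. At the TGI there is no net growth.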 Numbered stars: 1 amine (or outer) side, 2 acyl side, 3 side chain; on linkers, the order of the positions; unused ones are H or OH. Bridge positions count the residues as written; N and C are the ends. Square brackets hold non-standard residues; d marks the D form. Peptide text beside a SMILES is read from it. I, II: the chains in the order shown. Actinocin(1to9) = Cc1c2oc3c(C)ccc(C(=O)[*:2])c3nc-2c(C(=O)[*:1])c(N)c1=O; NMeY = CN[CH](Cc1ccc(O)cc1)C(=O)O; Sar = CNCC(=O)O

What all share (assay): NCI-60 cell line screen, 48 h
Experiment [1] has as its system COLO 205 colon.
The test system of experiment [2] is HCT-116 colon.
Experiment [3] deals with OVCAR-3 ovarian.
Experiment [4] has as its system MDA-MB-231 breast.
Experiment [5] concerns RPMI-8226 leukemia.
The test system of experiment [6] is MCF7 breast.
Experiment [7] relates to DU-145 prostate.
Experiment [8] deals with NCI-H23 lung.
Experiment [9] concerns OVCAR-8 ovarian.
Experiment [10] concerns EKVX NSCLC.

For `CC(C)(C)OC(=O)N[C@@H](Cc1ccccc1)C(=O)N(Cc1ccccc1)C1(C(=O)NCc2ccccc2)CCN(Cc2ccccc2)CC1`, the GI50 was 1.65 µM in [1]; 2.42 µM in experiment [2]; 3.95 µM in experiment [3]; 3.01 µM in experiment [4]; 2.18 µM in [5]; 2.82 µM in [6]. Further, the GI50 in [7] is 5.38 µM; in experiment [8], 5.67 µM; in [9] it was 3.51 µM. Also, the TGI was 3.32 µM in experiment [1]; 10.1 µM in experiment [2]; more than 100 µM in [3]; 79 µM in experiment [4]; 6.98 µM in [5]; 19.3 µM in [6]. Besides, the TGI in experiment [7], in experiment [8] and in [9] was more than 100 µM throughout.

In the case of `COc1cc(/C=N/N=C(\N)NO)c([N+](=O)[O-])cc1OC`, the TGI was more than 100 µM in [1]; 75.1 µM in [2]; more than 100 µM in [3]; more than 100 µM in [10]; more than 100 µM in experiment [5]; 99.4 µM in [8]. In addition, the TGI in experiment [9] is more than 100 µM.

With `CCC(CO)Nc1nc2c(c(=O)n(C)c(=O)n2C)n1CCO` (stereo not drawn), the TGI in experiment [1], in experiment [2], in [3], in experiment [10], in experiment [5] and in experiment [8] was more than 100 µM throughout. The molecule further came in with a TGI in experiment [9] of more than 100 µM.

Turning to `CCCCN(CCCC)CC(C(C)=O)C(c1ccccc1)c1c(O)c2ccccc2oc1=O` (stereo not drawn), the TGI in [1], in experiment [2], in experiment [3], in [10], in experiment [5] and in experiment [8] was more than 100 µM throughout. The same molecule returned a TGI in [9] of more than 100 µM.

On to `Nc1c2ccccc2nc2c(C(=O)Nc3ccc(S(N)(=O)=O)cc3)cccc12`, for which the TGI in experiment [1], in [2], in [3], in experiment [10], in [5] and in experiment [8] was more than 100 µM in each case. In experiment [9], this molecule gave a TGI of more than 100 µM.

Regarding `COc1cc(/C=C2\CCCC3=C2N=C2SC(C)=NN2C3c2cc(OC)c(OC)c(OC)c2)cc(OC)c1OC` (stereo not drawn), the GI50 is 0.429 µM in experiment [1], 0.58 µM in experiment [3], 0.319 µM in experiment [6] and 0.311 µM in experiment [9]. For the same molecule, the TGI in experiment [1], in experiment [3], in experiment [6] and in [9] was more than 100 µM in each case.

On to `COC(=O)CC[C@]12C[C@]13CC[C@]1(C)C4C(C)C[C@]5(CC(C)C(=O)O5)OC4CC1(C)C3CCC2C(C)(C)O` (stereo partly drawn), for which the TGI in experiment [1] was more than 100 µM; in experiment [2], more than 100 µM; in experiment [3], more than 100 µM; in experiment [10] it was more than 100 µM; in experiment [5], 98.7 µM; in experiment [8], more than 100 µM. Further, the TGI in experiment [9] is more than 100 µM.

With `COc1ccc(CC2C(=O)OC(C)C(NC(=O)c3c4nc5c(C(=O)NC6C(=O)NC(C(C)C)C(=O)N7CCCC7C(=O)N(C)CC(=O)N(C)C(Cc7ccc(OC)cc7)C(=O)OC6C)ccc(C)c5oc-4c(C)c(=O)c3N)C(=O)NC(C(C)C)C(=O)N3CCCC3C(=O)N(C)CC(=O)N2C)cc1` (stereo not drawn) (I: TVP[Sar][NMeY](Me) / II: TVP[Sar][NMeY](Me); ester I:1-I:C, II:1-II:C; linker I:N-II:N via Actinocin(1to9); configuration not given here), the GI50 in [1] is 0.00498 µM; in [2] it was < 0.01 µM and 0.00298 µM; in [10], < 0.01 µM and 0.0696 µM; in [6], < 0.01 µM and 0.003 µM. In addition, the TGI in [1] was 0.113 µM; in [2], 1.12 µM and > 1 µM; in experiment [10] it was 0.0734 µM and > 0.617 µM; in experiment [5], less than 0.01 µM; in experiment [6] it was 1.29 µM and > 1 µM.

Regarding `CC(=O)[O-].N.N.N.N.[Co+3].[O-][Cl+3]([O-])([O-])[O-].[OH3+]`, the GI50 in [1], in experiment [2], in [3], in [10], in [5] and in experiment [8] was more than 100 µM in each case. Further, the GI50 in experiment [9] is more than 100 µM. In addition, the TGI in experiment [1], in experiment [2], in [3], in experiment [10], in [5] and in [8] was more than 100 µM in each case. The TGI in [9] was more than 100 µM.

`O=C1NC2C(O)CCCCC2C12CCCCC2` (stereo not drawn): the TGI in experiment [1], in experiment [2], in experiment [3], in experiment [10], in experiment [5] and in experiment [8] was more than 100 µM in each case. In experiment [9], the TGI was more than 100 µM.

`COC(=O)[C@H](Cc1cn(C)cn1)NC(=O)[C@H](Cc1ccccc1)NC(=O)Nc1cc(C(F)(F)F)cc(C(F)(F)F)c1`: the GI50 in experiment [1] is 15.3 µM; in experiment [2], 3.1 µM and 3.54 µM; in [3], 2.25 µM and 3.46 µM; in experiment [4], 5.03 µM and 7.85 µM; in experiment [5], 7.49 µM and 11 µM; in [6], 2.58 µM and 5.03 µM. The GI50 in experiment [7] was 13.8 µM; in experiment [8], 17.4 µM; in [9], 8.26 µM and 9.71 µM. For the same molecule, the TGI was 31.6 µM in experiment [1]; 10.9 µM in [2]; 5.42 µM and 11.1 µM in [3]; 21.2 µM in [4]; 31.5 µM in experiment [5]; 9.73 µM and 29.4 µM in experiment [6]. For the same molecule, the figures for the TGI in [7], in experiment [8] and in experiment [9] were 27 µM, 33 µM and 22.7 µM, respectively.

In the case of `c1ccc(OC2=NC3=S(S2)SC(Oc2ccccc2)=N3)cc1`, the TGI turned out to be 37.2 µM in experiment [1]; 33.4 µM in experiment [2]; 28.6 µM in experiment [3]; 48.3 µM in experiment [10]; 24.8 µM in [5]; 49 µM in experiment [8]. In addition, in experiment [9], the TGI stood at 57.6 µM.

`COC(=O)N/N=C(\C)CC(=O)Nc1ccc(Cl)cc1`: the TGI in experiment [1], in experiment [2], in [3], in [10], in experiment [5] and in experiment [8] was more than 100 µM throughout. In addition, the TGI in [9] is more than 100 µM.
